Inhibition and IC50 data for 28 compounds are collected here from ChEMBL document CHEMBL1128050, “The discovery of a novel and potent benzodiazepine receptor pharmacophore” (Bioorg Med Chem Lett, 1995).

Structures are written as SMILES.

One test concerns the target GABA-A receptor; anion channel (Homo sapiens) (UniProt P14867+P47870+P18507+P28472+P48169+Q99928+Q9UN88+P34903+O00591+O14764+Q8N1C3+P18505+P78334+P47869+P31644+Q16445). Kind of test: Inhibition of [3H]flunitrazapam binding to GABA-A central benzodiazepine receptor of guinea pig cerebellum at 10 uM. The conditions noted are these: Cavia porcellus, target entry is the homologue from another species. The format is tissue-based.
In turn, `CN1CCC[C@@H]1Cc1c[nH]c2ccc(-n3ccc4cc(C#N)ccc43)cc12` had an inhibition of 37%.
`CN1CCC(c2c[nH]c3ccc(-n4ccc5cc(C#N)ccc54)cc23)C1` (centres undefined) showed an inhibition of 34%.

The next test has as its target GABA-A receptor; anion channel. Kind of test: Binding affinity to the benzodiazepine receptor assayed using 0.5 nM [3H]flunitrazapam as radioligand in guinea pig cerebellum. Type of test: tissue-based, Cavia porcellus.
Conditions: not given
As for `CN1CCC[C@@H]1Cc1c[nH]c2ccc(-n3cnc4cc(Cl)ccc43)cc12`, the IC50 is 1.1 nM.
The same measure, in the same setting: then `N#Cc1ccc2c(c1)ncn2-c1ccc2[nH]cc(C=O)c2c1`, with 19 nM; and `CN1CCC[C@@H]1Cc1c[nH]c2ccc(Nc3ncccc3[N+](=O)[O-])cc12`, with 9600 nM.
The same measure, in the same setting: the figure for `N#Cc1ccc2c(c1)ncn2-c1ccc2[nH]ccc2c1` is 18 nM; for `Cc1ccc2c(c1)ncn2-c1ccc2[nH]ccc2c1` it is 0.79 nM.
`CN1CCC[C@@H]1Cc1c[nH]c2ccc(-n3cnc4cc(C#N)ccc43)cc12` came in with an IC50 of 2.8 nM.
With `COCCN1CCC(c2c[nH]c3ccc(-n4cnc5cc(C#N)ccc54)cc23)CC1`, the IC50 was found to be 0.6 nM.
`N#Cc1ccc2c(c1)ncn2-c1ccc2[nH]cc(C3CCNCC3)c2c1` gave an IC50 of 0.24 nM.
Same read-out and setting: the figure for `Cc1ccc2c(c1)ncn2-c1ccc2[nH]cc(C3CCNCC3)c2c1` is 0.49 nM.
On the same count and under the same terms, then `CN1CCC[C@@H]1Cc1c[nH]c2ccc(-n3cnc4cc(NC(Cc5c[nH]c6ccccc56)C(=O)NC(=O)OCc5ccccc5)ccc43)cc12` (some centres undefined), with 33 nM.
For `CN1CCC[C@@H]1Cc1c[nH]c2ccc(-n3cnc4ccccc43)cc12`, the IC50 was found to be 16 nM.
Still for that read-out and setting: the figure for `Cc1ccc2c(c1)ncn2-c1ccc2[nH]cc(C[C@H]3CCCN3C)c2c1` is 0.16 nM; for `CN1CCC[C@@H]1Cc1c[nH]c2ccc(-n3cnc4cc(C#N)cnc43)cc12` it is 9.8 nM.
The same measure, in the same setting: the figure for `N#Cc1ccc2c(c1)ncn2-c1ccc2[nH]cc(C3=CCNCC3)c2c1` is 0.46 nM; for `Cc1ccc2c(c1)ncn2-c1ccc2[nH]cc(C3=CCN(C(=O)OC(C)(C)C)CC3)c2c1` it is 31 nM.
Same read-out and setting: the figure for `COCCN1CCC[C@@H]1Cc1c[nH]c2ccc(-n3cnc4cc(NC(=O)Nc5ccccc5)ccc43)cc12` is 17 nM; for `CN1CCC(c2c[nH]c3ccc(-n4cnc5cc(C#N)ccc54)cc23)C1` (centres undefined) it is 2.2 nM; for `COCCN1CCC[C@@H]1Cc1c[nH]c2ccc(-n3cnc4cc(C#N)ccc43)cc12` it is 24 nM.
`CN1CCC[C@H]1Cc1c[nH]c2ccc(-n3cnc4cc(C#N)ccc43)cc12` gave an IC50 of 1.8 nM.
Same read-out and setting: then `COCCN1CCC[C@@H]1Cc1c[nH]c2ccc(-n3cnc4cc(CN)ccc43)cc12`, with 55 nM; and `CN1CCC[C@@H]1Cc1c[nH]c2ccc(-n3ccc4cc(C#N)ccc43)cc12`, with over 1000 nM; and `CN1CCC[C@@H]1Cc1c[nH]c2ccc(-n3cnc4cccnc43)cc12`, with 27 nM.
On the same count and under the same terms, the figure for `c1cnc2c(c1)ncn2-c1ccc2[nH]cc(C[C@H]3CCCN3)c2c1` is 110 nM.
Same read-out and setting: then `Cc1ccnc2c1ncn2-c1ccc2[nH]cc(C[C@H]3CCCN3C)c2c1`, with 12 nM.
In the case of `O=Cc1c[nH]c2ccc(-n3cnc4cccnc43)cc12`, the IC50 came to 209 nM.
On to `CN1CCC[C@@H]1Cc1c[nH]c2ccc(-n3cnc4cc(CN)ccc43)cc12`, for which the IC50 was determined as 13 nM.

The target in a further test is GABA-A receptor; anion channel. Kind of test: Displacement of [3H]flunitrazapam from GABA-A central benzodiazepine receptor of guinea pig cerebellum.
Conditions: not given
The format is tissue-based, Cavia porcellus.
Compound `N#Cc1ccc2c(c1)ncn2-c1ccc2[nH]cc(C[C@H]3CCCN3CC3CC3)c2c1` showed an IC50 of 27 nM.
